Data published in US20260092071A1, “COMPOUNDS AND COMPOSITIONS AS SMARCA2/4 DEGRADERS AND USES THEREOF” (REGENTS OF THE UNIVERSITY OF MICHIGAN, priority 2022, published 2026).

Columns and labels:
SMARCA4 = SMARCA4 (Homo sapiens, UniProt P51532); experiment: HiBit assay in engineered HT1080 CRISPR knock-in cell, 6 hrs (B series), SMARCA4; format: cell-based; conditions: 6 hrs incubation; for DC50: HT1080 CRISPR knock-in cells, read-out: SMARC A4 HT1080 HiBit DC50; for Dmax: HT-1080, HT1080 CRISPR knock-in cells, read-out: SMARC A4 HT1080 HiBit Dmax(%)
Chain of SMARCA4 (P51532 whole entry): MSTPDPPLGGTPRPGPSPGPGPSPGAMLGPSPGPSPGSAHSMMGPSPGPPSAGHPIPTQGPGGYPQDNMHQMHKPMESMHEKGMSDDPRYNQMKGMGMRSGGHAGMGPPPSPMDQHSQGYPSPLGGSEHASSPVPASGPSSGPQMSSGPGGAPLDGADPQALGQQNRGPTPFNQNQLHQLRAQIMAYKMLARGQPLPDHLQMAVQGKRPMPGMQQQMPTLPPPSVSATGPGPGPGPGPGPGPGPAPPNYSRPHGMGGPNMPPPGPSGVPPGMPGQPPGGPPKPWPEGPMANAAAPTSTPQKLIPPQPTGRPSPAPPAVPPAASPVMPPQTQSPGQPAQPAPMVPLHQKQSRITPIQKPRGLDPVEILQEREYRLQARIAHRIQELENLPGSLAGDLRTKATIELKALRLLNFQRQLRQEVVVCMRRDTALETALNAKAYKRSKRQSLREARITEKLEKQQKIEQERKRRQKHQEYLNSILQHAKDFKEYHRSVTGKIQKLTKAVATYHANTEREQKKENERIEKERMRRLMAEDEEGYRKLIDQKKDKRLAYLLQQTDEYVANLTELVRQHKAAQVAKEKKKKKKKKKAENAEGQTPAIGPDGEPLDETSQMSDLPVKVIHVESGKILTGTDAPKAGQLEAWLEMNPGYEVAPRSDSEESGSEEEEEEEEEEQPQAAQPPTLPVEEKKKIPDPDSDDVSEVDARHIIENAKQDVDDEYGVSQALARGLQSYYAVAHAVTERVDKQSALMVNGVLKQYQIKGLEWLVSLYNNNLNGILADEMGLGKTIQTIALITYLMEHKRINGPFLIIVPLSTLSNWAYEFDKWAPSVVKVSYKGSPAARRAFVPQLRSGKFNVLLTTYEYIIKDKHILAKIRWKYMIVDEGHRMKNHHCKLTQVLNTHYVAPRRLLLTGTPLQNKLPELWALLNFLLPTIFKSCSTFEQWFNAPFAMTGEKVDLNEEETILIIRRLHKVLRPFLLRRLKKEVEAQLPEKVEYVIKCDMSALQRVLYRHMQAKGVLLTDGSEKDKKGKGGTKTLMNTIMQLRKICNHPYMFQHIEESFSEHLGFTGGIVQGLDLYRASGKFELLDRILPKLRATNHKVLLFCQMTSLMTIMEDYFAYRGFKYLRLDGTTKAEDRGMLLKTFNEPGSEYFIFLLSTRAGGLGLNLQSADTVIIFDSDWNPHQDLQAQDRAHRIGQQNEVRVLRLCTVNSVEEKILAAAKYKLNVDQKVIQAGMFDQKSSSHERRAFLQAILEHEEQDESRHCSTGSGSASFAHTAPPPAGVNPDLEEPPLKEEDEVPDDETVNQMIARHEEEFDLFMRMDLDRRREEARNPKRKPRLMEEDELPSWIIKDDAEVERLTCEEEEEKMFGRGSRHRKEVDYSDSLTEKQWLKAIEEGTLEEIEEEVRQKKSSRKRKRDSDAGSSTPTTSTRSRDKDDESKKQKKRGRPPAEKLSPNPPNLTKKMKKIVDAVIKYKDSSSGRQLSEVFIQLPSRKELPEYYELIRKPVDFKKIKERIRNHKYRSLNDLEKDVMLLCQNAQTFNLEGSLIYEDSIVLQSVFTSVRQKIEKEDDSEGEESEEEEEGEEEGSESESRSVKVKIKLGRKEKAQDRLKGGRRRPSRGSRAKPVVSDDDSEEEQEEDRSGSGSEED
In short: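 Engineered HT1080 knock-in cells, 2000 cells/well, 6 hrs compound exposure, 37° C/5% CO2, 0.1% DMSO final. Lytic detection: LgBiT 1:100 plus HiBiT substrate 1:50 in lytic buffer, 10 min shake at RT, luminescence read.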

SMARCA2 = SMARCA2 (Homo sapiens, UniProt P51531); experiment: HiBit assay in engineered HT1080 CRISPR knock-in cell, 6 hrs (B series), SMARCA2; format: cell-based; conditions: 6 hrs incubation; for DC50: HT1080 CRISPR knock-in cells, read-out: SMARC A2 HT1080 HiBit DC50; for Dmax: HT-1080, HT1080 CRISPR knock-in cells, read-out: SMARC A2 HT1080 HiBit Dmax (%)
Chain of SMARCA2 (P51531 whole entry): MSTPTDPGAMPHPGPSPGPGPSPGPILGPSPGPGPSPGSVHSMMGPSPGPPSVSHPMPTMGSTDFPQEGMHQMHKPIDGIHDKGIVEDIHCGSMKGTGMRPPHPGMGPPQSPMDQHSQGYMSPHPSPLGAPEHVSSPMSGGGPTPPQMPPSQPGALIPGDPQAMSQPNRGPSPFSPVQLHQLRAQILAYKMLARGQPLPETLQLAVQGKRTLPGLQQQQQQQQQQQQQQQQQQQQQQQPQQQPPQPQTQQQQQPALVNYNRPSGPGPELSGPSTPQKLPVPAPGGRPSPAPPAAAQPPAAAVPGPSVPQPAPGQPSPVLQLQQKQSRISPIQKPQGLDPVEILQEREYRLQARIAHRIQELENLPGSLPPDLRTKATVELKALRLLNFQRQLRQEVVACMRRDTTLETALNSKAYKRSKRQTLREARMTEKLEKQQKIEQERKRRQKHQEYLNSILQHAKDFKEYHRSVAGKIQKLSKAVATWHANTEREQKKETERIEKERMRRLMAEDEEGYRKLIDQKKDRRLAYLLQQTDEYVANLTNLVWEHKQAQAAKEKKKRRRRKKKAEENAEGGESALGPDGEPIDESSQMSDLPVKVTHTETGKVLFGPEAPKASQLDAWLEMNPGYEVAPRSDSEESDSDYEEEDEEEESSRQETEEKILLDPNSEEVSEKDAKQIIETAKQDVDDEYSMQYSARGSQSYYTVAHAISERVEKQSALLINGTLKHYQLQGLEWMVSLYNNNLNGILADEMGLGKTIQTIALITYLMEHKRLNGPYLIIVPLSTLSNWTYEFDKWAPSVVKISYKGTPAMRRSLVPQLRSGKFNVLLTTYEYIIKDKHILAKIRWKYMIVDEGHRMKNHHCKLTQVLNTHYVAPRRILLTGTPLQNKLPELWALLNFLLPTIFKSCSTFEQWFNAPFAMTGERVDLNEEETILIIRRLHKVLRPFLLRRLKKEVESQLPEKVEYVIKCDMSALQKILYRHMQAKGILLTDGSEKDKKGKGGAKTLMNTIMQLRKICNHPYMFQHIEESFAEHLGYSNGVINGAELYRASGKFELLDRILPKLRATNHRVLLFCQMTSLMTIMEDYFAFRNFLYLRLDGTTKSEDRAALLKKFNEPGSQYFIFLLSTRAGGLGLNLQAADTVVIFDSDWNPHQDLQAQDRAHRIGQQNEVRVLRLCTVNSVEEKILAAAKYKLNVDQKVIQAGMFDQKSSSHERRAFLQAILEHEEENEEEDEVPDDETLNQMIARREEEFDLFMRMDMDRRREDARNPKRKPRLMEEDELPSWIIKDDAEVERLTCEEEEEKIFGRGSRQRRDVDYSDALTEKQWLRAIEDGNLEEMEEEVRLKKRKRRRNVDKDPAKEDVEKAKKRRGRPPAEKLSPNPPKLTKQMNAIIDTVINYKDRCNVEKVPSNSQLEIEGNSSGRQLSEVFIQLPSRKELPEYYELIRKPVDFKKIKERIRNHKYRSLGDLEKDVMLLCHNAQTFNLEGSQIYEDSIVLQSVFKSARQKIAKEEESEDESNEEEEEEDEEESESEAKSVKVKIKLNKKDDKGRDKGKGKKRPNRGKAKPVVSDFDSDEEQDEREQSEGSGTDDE
In short: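 Remaining SMARCA2 protein measured as HiBiT luminescence after cell lysis with LgBiT plus lytic substrate. Engineered HT1080 knock-in cells (2000/well) were first treated 6 h at 37 °C with compound at a final 0.1% DMSO.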

DC50 (SMARCA4) [nM]	Dmax (SMARCA4) [%]	DC50 (SMARCA2) [nM]	Dmax (SMARCA2) [%]	SMILES
< 100	> 90	< 100	> 90	Cc1ncsc1-c1ccc([C@H](C)NC(=O)[C@@H]2C[C@@H](O)CN2C(=O)[C@H](C(C)C)n2cc(C3CCN(CCCN4CCC(c5ccc6c(c5)-n5c(nc(=O)c7c(Cl)cccc75)C6(C)C)CC4)CC3)nn2)cc1 [Compound B66, (2S,4R)-1-((S)-2-(4-(1-(3-(4-(4-chloro-7,7-dimethyl-5-oxo-5,7-dihydroindolo[1,2-a]quinazolin-10-yl)piperidin-1-yl)propyl)piperidin-4-yl)-1H-1,2,3-triazol-1-yl)-3-methylbutanoyl)-4-hydroxy-N—((S)-1-(4-(4-methylthiazol-5-yl)phenyl)ethyl)pyrrolidine-2-carboxamide]
100 to 500	< 50	< 100	> 90	Cc1ncsc1-c1ccc([C@H](C)NC(=O)[C@@H]2C[C@@H](O)CN2C(=O)[C@@H](NC(=O)[C@H]2CC[C@H](CN3CCC(c4ccc5c(c4)-n4c(nc(=O)c6c(Cl)cccc64)C5(C)C)CC3)CC2)C(C)(C)C)cc1 [Compound B40, (2S,4R)-1-((S)-2-((1r,4S)-4-((4-(4-chloro-7,7-dimethyl-5-oxo-5,7-dihydroindolo[1,2-a]quinazolin-10-yl)piperidin-1-yl)methyl)cyclohexane-1-carboxamido)-3,3-dimethylbutanoyl)-4-hydroxy-N-((S)-1-(4-(4-methylthiazol-5-yl)phenyl)ethyl)pyrrolidine-2-carboxamide]
< 100	< 50	< 100	> 90	Cc1ncsc1-c1ccc([C@H](C)NC(=O)[C@@H]2C[C@@H](O)CN2C(=O)[C@@H](c2cc(OCCN3CCC(c4ccc5c(c4)-n4c(nc(=O)c6c(Cl)cccc64)C5(C)C)CC3)no2)C(C)C)cc1 [Compound B32, (2S,4R)-1-((R)-2-(3-(2-(4-(4-chloro-7,7-dimethyl-5-oxo-5,7-dihydroindolo[1,2-a]quinazolin-10-yl)piperidin-1-yl)ethoxy)isoxazol-5-yl)-3-methylbutanoyl)-4-hydroxy-N-((S)-1-(4-(4-methylthiazol-5-yl)phenyl)ethyl)pyrrolidine-2-carboxamide]
< 100	> 90	< 100	> 90	Cc1ncsc1-c1ccc([C@H](C)NC(=O)[C@@H]2C[C@@H](O)CN2C(=O)[C@@H](NC(=O)CN2CCC(c3ccc4c(c3)C(C)(C)c3nc(=O)c5c(Br)cccc5n3-4)CC2)C(C)(C)C)cc1 [Compound B5, (2S,4R)-1-((S)-2-(2-(4-(4-bromo-7,7-dimethyl-5-oxo-5,7-dihydroindolo[1,2-a]quinazolin-9-yl)piperidin-1-yl)acetamido)-3,3-dimethylbutanoyl)-4-hydroxy-N—((S)-1-(4-(4-methylthiazol-5-yl)phenyl)ethyl)pyrrolidine-2-carboxamide]
< 100	50 to 69	< 100	> 90	Cc1ncsc1-c1ccc([C@H](C)NC(=O)[C@@H]2C[C@@H](O)CN2C(=O)[C@@H](c2cc(N3CCC(CN4CCN(c5ccc6c(c5)-n5c(nc(=O)c7c(Cl)cccc75)C6(C)C)CC4)CC3)no2)C(C)C)cc1 [Compound B111, (2S,4R)-1-((R)-2-(3-(4-((4-(4-chloro-7,7-dimethyl-5-oxo-5,7-dihydroindolo[1,2-a]quinazolin-10-yl)piperazin-1-yl)methyl)piperidin-1-yl)isoxazol-5-yl)-3-methylbutanoyl)-4-hydroxy-N-((S)-1-(4-(4-methylthiazol-5-yl)phenyl)ethyl)pyrrolidine-2-carboxamide]
< 100	70 to 90	< 100	> 90	C[C@H](NC(=O)[C@@H]1C[C@@H](O)CN1C(=O)[C@@H](n1cc([C@H]2CC[C@H](CN3CCN(c4ccc5c(c4)-n4c(nc(=O)c6c(Cl)cccc64)C5(C)C)CC3)CC2)nn1)C(C)(C)C)c1ccc(-c2scnc2C#CCN2CCOCC2)cc1 [Compound B135, (2S,4R)-1-((S)-2-(4-((1r,4S)-4-((4-(4-chloro-7,7-dimethyl-5-oxo-5,7-dihydroindolo[1,2-a]quinazolin-10-yl)piperazin-1-yl)methyl)cyclohexyl)-1H-1,2,3-triazol-1-yl)-3,3-dimethylbutanoyl)-4-hydroxy-N-((S)-1-(4-(4-(3-morpholinoprop-1-yn-1-yl)thiazol-5-yl)phenyl)ethyl)pyrrolidine-2-carboxamide]
< 100	70 to 90	< 100	70 to 90	Cc1ncsc1-c1ccc([C@H](CCCCCn2cc(-c3ccc4c(c3)-n3c(nc(=O)c5c(Cl)cccc53)C4(C)C)cn2)NC(=O)[C@@H]2C[C@@H](O)CN2C(=O)[C@@H](NC(=O)C2(F)CC2)C(C)(C)C)cc1 [Compound B46, (2S,4R)-N-((S)-6-(4-(4-chloro-7,7-dimethyl-5-oxo-5,7-dihydroindolo[1,2-a]quinazolin-10-yl)-1H-pyrazol-1-yl)-1-(4-(4-methylthiazol-5-yl)phenyl)hexyl)-1-((S)-2-(1-fluorocyclopropane-1-carboxamido)-3,3-dimethylbutanoyl)-4-hydroxypyrrolidine-2-carboxamide]
< 100	> 90	< 100	> 90	Cc1ncsc1-c1ccc([C@H](CCCCCN2CCC(c3ccc4c(c3)C(C)(C)c3nc(=O)c5c(Br)cccc5n3-4)CC2)NC(=O)[C@@H]2C[C@@H](O)CN2C(=O)[C@@H](NC(=O)C2(F)CC2)C(C)(C)C)cc1 [Compound B2, (2S,4R)—N—((S)-6-(4-(4-bromo-7,7-dimethyl-5-oxo-5,7-dihydroindolo[1,2-a]quinazolin-9-yl)piperidin-1-yl)-1-(4-(4-methylthiazol-5-yl)phenyl)hexyl)-1-((S)-2-(1-fluorocyclopropane-1-carboxamido)-3,3-dimethylbutanoyl)-4-hydroxypyrrolidine-2-carboxamide]
< 100	70 to 90	< 100	> 90	Cc1ncsc1-c1ccc([C@H](C)NC(=O)[C@@H]2C[C@@H](O)CN2C(=O)C(c2cc(N3CCC(c4ccc5c(c4)C(C)(C)c4nc(=O)c6c(Cl)cccc6n4-5)CC3)no2)C(C)C)cc1 (stereo partly drawn) [Compound B42, (2S,4R)-1-(2-(3-(4-(4-chloro-7,7-dimethyl-5-oxo-5,7-dihydroindolo[1,2-a]quinazolin-9-yl)piperidin-1-yl)isoxazol-5-yl)-3-methylbutanoyl)-4-hydroxy-N—((S)-1-(4-(4-methylthiazol-5-yl)phenyl)ethyl)pyrrolidine-2-carboxamide]
< 100	70 to 90	< 100	> 90	Cc1cc(C(C(=O)N2C[C@H](O)C[C@H]2C(=O)N[C@@H](CN2CCC(N3CCC(c4cccc5c4C(C)(C)c4nc(=O)c6c(Cl)cccc6n4-5)CC3)CC2)c2ccc(-c3scnc3C)cc2)C(C)C)on1 (stereo partly drawn) [Compound B155, (2S,4R)-N-((R)-2-(4-(4-chloro-7,7-dimethyl-5-oxo-5,7-dihydroindolo[1,2-a]quinazolin-8-yl)-[1,4'-bipiperidin]-1'-yl)-1-(4-(4-methylthiazol-5-yl)phenyl)ethyl)-4-hydroxy-1-(3-methyl-2-(3-methylisoxazol-5-yl)butanoyl)pyrrolidine-2-carboxamide]
